Assay results: patent US12042539B2, “Compositions and kits for Omeprazole suspension” (Azurity Pharmaceuticals, Inc., priority 2019, dated 2024)
Values after ≈ are worked out from the molar mass of the structure shown. Like-named read-outs stand apart in the source and are kept apart here. Blank lines part the entries; values can stand above or below the compound they belong to.

How the values were obtained:
[1] = Related substance (omeprazole impurities) at stability time points; type: physicochemical; conditions: Omeprazole API
Source text: Monitoring the trend of increase in chemical impurities/related substances is important with respect to stability of a formulation. Related substance data developed during stability studies of a formulation play a crucial role with respect to determining a useable shelf life for a formulation.
Specification: • a. […] 5-Methoxy-1H-Benzimidazol-2-thiol: NMT 0.50% • c. Omeprazole sulphone N-Oxide: NMT 0.50% • d. Omeprazole N-Oxide: NMT 0.50% • e. Omeprazole Sulphone: NMT 0.50% • f Omeprazole 4-Chloro analog (IMP-H): NMT 0.50% • g. Sulphide (Ufiprazole): NMT 0.50% • h. Desmethoxy Omeprazole: NMT 0.50% • i. Any other individual impurity: NMT 0.20% • j. Total impurities: NMT 2.0%

[2] = biological target: P-glycoprotein (Homo sapiens, UniProt P08183); conditions: cited from earlier work
[3] = Phase solubility of omeprazole at different concentrations of poloxamer 188; type: physicochemical; conditions: for solubility: thermodynamic from solid, read-out: Soluble fraction
[4] = cited from earlier work
[5] = PXRD of reconstituted suspensions (polymorphic form of omeprazole API); type: physicochemical; conditions: 3M and 6M Day 30, 25° C./60% RH and 2-8° C.
Method: To evaluate the polymorphic characteristic of omeprazole API during reconstitution stability studies, the reconstituted suspensions were analyzed by X-ray diffraction (XRD) at 3M and 6M time points at 25° C./60% RH and 2-8° C. conditions.

[6] = cited from earlier work; remark: listed apart in the source
[7] = increase in poloxamer concentration beyond 10 mg/mL; cited from earlier work

Sequence of P-glycoprotein (P08183 whole entry): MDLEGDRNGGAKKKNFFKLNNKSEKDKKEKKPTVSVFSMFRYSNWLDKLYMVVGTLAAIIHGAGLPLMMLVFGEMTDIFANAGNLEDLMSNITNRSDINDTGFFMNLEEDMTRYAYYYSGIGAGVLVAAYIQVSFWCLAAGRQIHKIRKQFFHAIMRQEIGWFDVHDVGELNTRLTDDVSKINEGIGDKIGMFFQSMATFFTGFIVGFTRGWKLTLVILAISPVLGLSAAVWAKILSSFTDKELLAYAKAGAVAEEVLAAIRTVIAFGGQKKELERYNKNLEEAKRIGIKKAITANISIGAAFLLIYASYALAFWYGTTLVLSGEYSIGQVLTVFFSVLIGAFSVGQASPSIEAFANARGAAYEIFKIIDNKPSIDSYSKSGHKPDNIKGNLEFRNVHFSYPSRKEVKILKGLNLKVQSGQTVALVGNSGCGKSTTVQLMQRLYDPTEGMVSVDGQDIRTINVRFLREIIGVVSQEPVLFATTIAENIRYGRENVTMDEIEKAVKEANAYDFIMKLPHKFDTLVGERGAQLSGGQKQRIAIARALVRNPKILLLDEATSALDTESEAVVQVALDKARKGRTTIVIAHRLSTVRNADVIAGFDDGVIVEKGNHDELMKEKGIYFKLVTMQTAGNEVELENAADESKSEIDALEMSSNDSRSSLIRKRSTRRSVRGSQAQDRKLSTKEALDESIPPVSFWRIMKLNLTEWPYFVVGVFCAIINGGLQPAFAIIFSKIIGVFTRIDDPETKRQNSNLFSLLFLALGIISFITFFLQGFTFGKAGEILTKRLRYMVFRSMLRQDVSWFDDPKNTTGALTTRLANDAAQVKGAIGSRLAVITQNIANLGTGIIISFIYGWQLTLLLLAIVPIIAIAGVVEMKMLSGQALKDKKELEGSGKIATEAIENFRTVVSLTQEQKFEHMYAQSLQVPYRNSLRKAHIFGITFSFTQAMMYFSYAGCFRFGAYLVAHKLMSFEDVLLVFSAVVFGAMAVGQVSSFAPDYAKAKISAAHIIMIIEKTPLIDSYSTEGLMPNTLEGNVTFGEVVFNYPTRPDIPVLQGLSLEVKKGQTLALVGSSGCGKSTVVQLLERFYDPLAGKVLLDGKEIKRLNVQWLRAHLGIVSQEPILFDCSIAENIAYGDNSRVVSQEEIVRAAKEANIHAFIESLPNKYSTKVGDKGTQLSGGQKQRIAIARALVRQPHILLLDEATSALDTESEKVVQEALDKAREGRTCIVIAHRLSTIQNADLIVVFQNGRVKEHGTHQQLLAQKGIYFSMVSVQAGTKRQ

- Related Substance: Omeprazole F&G [1]: 0.031%
- Related Substance: Omeprazole sulphone N-Oxide [1]: Not Detected
- Related Substance: Total impurities [1]: 0.05%
- Related Substance: 5-Methoxy Benzamidazole 2 thiol ([1]; LOQ (0.01%)): Less than LOQ
- Related Substance: Desmethoxy Omeprazole ([1]; LOQ (0.01%)): Less than LOQ
- Related Substance: Omeprazole 4-Chloro analog (IMP-H) ([1]; LOQ (0.01%)): Less than LOQ
- Related Substance: Omeprazole N-Oxide ([1]; LOQ (0.01%)): Less than LOQ
- Related Substance: Omeprazole Sulphide ([1]; LOQ (0.01%)): Less than LOQ
- Related Substance: Omeprazole Sulphone (IMP-A) ([1]; LOQ (0.01%)): Less than LOQ
- Soluble fraction (%) ([3]; 0 % w/v Poloxamer Content): 10.9%
- solubility ([3]; 0% w/v poloxamer 188 (base solvent not stated), 0 % w/v Poloxamer Content): 218 µg/mL (≈ 631 µM)
- Soluble fraction (%) ([3]; 0.5 % w/v Poloxamer Content): 15.6%
- Soluble fraction (%) ([3]; 1 % w/v Poloxamer Content): 17.1%
- Soluble fraction (%) ([3]; 2 % w/v Poloxamer Content): 47.8%
- Soluble fraction (%) ([3]; 4 % w/v Poloxamer Content): 47.3%
- Omeprazole solubility ([3]; at higher poloxamer 188 content (above 1% w/v)): increased significantly
- solubility ([3]; poloxamer 188 at 2% w/v (base solvent not stated), aqueous with cosolvent or surfactant or cyclodextrin, 2 % w/v Poloxamer Content): 957 µg/mL (≈ 2770 µM)
- solubility ([3]; poloxamer 188 at 4% w/v (base solvent not stated), aqueous with cosolvent or surfactant or cyclodextrin, 4 % w/v Poloxamer Content): 946 µg/mL (≈ 2740 µM)
- solubility ([3]; poloxamer 188 solution (0.5% w/v), aqueous with cosolvent or surfactant or cyclodextrin, 0.5 % w/v Poloxamer Content): 313 µg/mL (≈ 906 µM)
- solubility ([3]; poloxamer 188 solution (1% w/v), aqueous with cosolvent or surfactant or cyclodextrin, 1 % w/v Poloxamer Content): 342 µg/mL (≈ 990 µM)
- Impact of poloxamer 188 content on omeprazole solubility ([3]; up to 1% w/v poloxamer 188): did not show any significant impact
- Polymorphic form conversion (PXRD) [5]: no polymorphic form conversion
Compound: COc1ccc2[nH]c([S+]([O-])Cc3ncc(C)c(OC)c3C)nc2c1 (centres unmarked) [Omeprazole]
- P-gp inhibition effects [2]: does not have P-gp inhibition effects
- P-gp substrate [2]: moderate P-gp substrate
- Log P [4]: 2.43
- solubility ([4]; in water): Very slightly soluble in water
- half-life ([6]; in vivo): 30 to 60 min
- Peak Plasma concentration, time to achieve ([6]; marketed formulations of omeprazole): very rapidly

Compound: CC(C)(C)NCC(O)COc1cccc2c1CC(O)C(O)C2 (centres unmarked) [nadolol]
- Effect of poloxamer on permeability [7]: didn't show a significant effect
